For 31 compounds, AC40 and MLANA expression inhibition results are on record in PubChem BioAssay AID651795 (Broad Institute, 2012).

Several values for one entry are separate records, joined by “and”; a condition that tells them apart may be missing. Equal values may be shown once. Inconclusive results are not listed. Activity calls are given as the source filed them.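 How the source made its calls: active means compounds whose fitted curve reaches 40% MLANA inhibition below twice the top dose tried; inconclusive means flat curve with 30 to 70% opposite effect, or poor fit; inactive means the rest.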

The first test deals with SK-MEL-5 MLANA mRNA qPCR, delta delta Ct, overnight. The test can be described thus: inhibitors of MLANA mRNA expression, dose response, cell-based, RT-qPCR, SK-MEL-5, dry powder (AID 651795).
Settings: not given
On the technique in general: Quantitative PCR measures a nucleic acid by following its amplification.
`COC1=C(Nc2ccccc2)C(=O)c2ccccc2C1=O`: the AC40 was 0.492 µM.
As for `CC(C)N1CCN(C2=C(Nc3ccc(F)cc3)C(=O)c3ccccc3C2=O)CC1`, the AC40 is 5.31 µM.
With `O=C(NC1=C(Cl)C(=O)c2ccccc2C1=O)c1ccccc1`, the AC40 was 0.227 µM.
Regarding `O=C1C=C(NS(=O)(=O)c2ccc(Br)cc2)C(=O)c2ccccc21`, the AC40 is 2.44 µM.
On the same count and under the same terms, under `COc1ccc(NC2=C(N3CCCCC3)C(=O)c3ccccc3C2=O)cc1` stands 11 µM.
Still for that read-out and setting: under `CCN1CCN(C2=C(Nc3ccc(F)cc3F)C(=O)c3ccccc3C2=O)CC1` stands 2.48 µM; under `CCN1CCN(C2=C(NS(=O)(=O)c3ccc(Br)cc3)C(=O)c3ccccc3C2=O)CC1`, 6.43 µM.
`NC1=C(NC(=O)c2ccccc2)C(=O)c2ccccc2C1=O`: the AC40 was 1.54 µM.
Still for that read-out and setting: then `CC(C)N1CCN(C2=C(Nc3ccc(F)cc3F)C(=O)c3ccccc3C2=O)CC1`, with 3.47 µM; and `NC1=C(NS(=O)(=O)c2cccs2)C(=O)c2ccccc2C1=O`, with 2.27 µM.
As to `COC1=C(NS(=O)(=O)c2cccs2)C(=O)c2ccccc2C1=O`, the AC40 is 10.5 µM.
Consider `O=C1C=C(NS(=O)(=O)c2ccccc2)C(=O)c2ccccc21`, for which the AC40 was 1.36 µM.
On the same count and under the same terms, then `NC1=CC(=O)c2ccccc2C1=O`, with 0.813 µM.
`Cc1ccc(NC2=CC(=O)c3ccccc3C2=O)cc1`: the AC40 was 0.745 µM.
As for `NC1=C(NS(=O)(=O)c2ccccc2)C(=O)c2ccccc2C1=O`, the AC40 is 4.5 µM.
Still for that read-out and setting: then `O=C1C(Nc2ccc(F)cc2)=C(N2CCCCC2)C(=O)c2ccccc21`, with 9.24 µM; and `Cc1nc2ccccc2n1/N=C/c1ccc([N+](=O)[O-])s1`, with 2.75 µM; and `O=C1C(Nc2ccc(Br)cc2)=C(N2CCCCC2)C(=O)c2ccccc21`, with 14.3 µM.
With `CN1CCN(C2=C(NS(=O)(=O)c3ccc(Br)s3)C(=O)c3ccccc3C2=O)CC1`, the AC40 is 2.93 µM.
As to `COC1=C(NS(=O)(=O)c2ccc(Br)cc2)C(=O)c2ccccc2C1=O`, the AC40 was 9.12 µM.
As for `CN1CCN(C2=C(Nc3ccc(F)cc3F)C(=O)c3ccccc3C2=O)CC1`, the AC40 is 3.45 µM.
For the compound `O=C1C=C(NS(=O)(=O)c2cccs2)C(=O)c2ccccc21`, the AC40 was 1.98 µM.
For the compound `O=C1C(Nc2ccccc2)=C(c2ccccc2)C(=O)c2ccccc21`, the AC40 was 7.78 µM.
On to `O=C1C(Nc2ccc(Cl)cc2)=C(N2CCCC2)C(=O)c2ccccc21`, for which the AC40 is 8.64 µM.
Consider `O=C1C=C(Nc2ccccc2)C(=O)c2ccccc21`, for which the AC40 was 0.337 µM and 0.389 µM.
In the case of `C=CCNC1=C(Cl)C(=O)c2ccccc2C1=O`, the AC40 was 0.764 µM.
For `NS(=O)(=O)c1ccc(NC2=CC(=O)c3ccccc3C2=O)cc1`, the AC40 is 0.0824 µM.
In the case of `CCN1CCN(C2=C(NC(=O)c3ccccc3)C(=O)c3ccccc3C2=O)CC1`, the AC40 was 1.15 µM.
Turning to `O=C1C(NS(=O)(=O)c2cccs2)=C(c2ccccc2)C(=O)c2ccccc21`, the AC40 was 10.8 µM.
For `O=C1C=C(Nc2ccc([N+](=O)[O-])c(C(F)(F)F)c2)C(=O)c2ccccc21`, the AC40 is 0.119 µM.

System in a further test: not listed separately
The description is as above. Particulars: SK-MEL-5 MLANA mRNA qPCR, delta delta Ct, overnight; at 35 µM (top of the series).
In the case of `NC1=C(NS(=O)(=O)c2ccc(Br)s2)C(=O)c2ccccc2C1=O`, the MLANA expression inhibition was 31.6% (inactive).
